In patent publication US8137946B2, “Recombinant GRAS strains expressing thermophilic arabinose isomerase as an active form and method of preparing food grade tagatose by using the same” (CJ Cheiljedang Corporation, priority 2006, dated 2012):
Values joined by “and” are separate entries in the source; they are usually repeats but may differ in a detail not shown here. Equal entries are not always repeated.

Columns and labels:
[1] = target: T1, Geobacillus thermodenitrificans arabinose isomerase (mGTAI), recombinant, expressed in and purified from Corynebacterium glutamicum mGTAIC001 (Geobacillus thermodenitrificans, UniProt A4IPA1, C449S/N474K); assay: Enzyme kinetics of purified recombinant arabinose isomerase (isomerization of galactose into tagatose)
T1 sequence (A4IPA1 with tags, fused parts or gaps C449S/N474K): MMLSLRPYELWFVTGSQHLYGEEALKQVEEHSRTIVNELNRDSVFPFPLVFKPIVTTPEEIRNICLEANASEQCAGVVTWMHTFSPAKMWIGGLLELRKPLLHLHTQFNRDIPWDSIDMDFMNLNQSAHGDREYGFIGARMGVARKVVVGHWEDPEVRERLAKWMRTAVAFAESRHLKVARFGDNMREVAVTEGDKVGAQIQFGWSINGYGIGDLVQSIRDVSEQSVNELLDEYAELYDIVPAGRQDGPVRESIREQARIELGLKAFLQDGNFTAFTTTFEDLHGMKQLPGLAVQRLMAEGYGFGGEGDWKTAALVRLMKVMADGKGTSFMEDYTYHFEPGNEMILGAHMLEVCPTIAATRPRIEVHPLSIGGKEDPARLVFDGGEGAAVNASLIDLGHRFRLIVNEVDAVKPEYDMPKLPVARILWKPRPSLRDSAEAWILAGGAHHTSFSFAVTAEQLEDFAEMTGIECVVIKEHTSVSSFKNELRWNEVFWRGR
Procedure: The culture solution was centrifuged at 8000×g for 10 minutes and cells were recovered. The cells were resuspended in 50 mM Tris-HCl (pH 7.0) buffer, and used for the protein purification. The cell suspension progressed to cell lysis using a high pressure cell homogenizer T-series (4.0 kW; Constant systems, UK), followed by heat-treatment at […] for 20 minutes. Centrifugation was performed at 10,000×g for 10 minutes to separate the expressed recombinant thermophilic arabinose isomerase.
The separated recombinant enzyme solution was filtered by ultrafiltration (MW: 10,000; Sartorius, U.S.A.) and was purified by Q Sepharose Fast Flow (anion exchange column) (staring buffer: 20 mM Tris-HCl, pH 7.5, elution buffer: 20 mM Tris-HCl (pH 7.5)+500 mM NaCl). The protein was purified by FPLC system and it was analyzed by SDS-PAGE.
The activity of the enzyme was measured by the cystein-carbazol-sulfuric acid method (Dische, Z., and E. Borenfreund., A New Spectrophotometric Method for the Detection and Determination of Keto Sugars and Trioses, J. Biol. Chem., 192:583-587, 1951). The fraction contained in the enzyme solution was analysed by SDS-PAGE.
The activity of the enzyme was measured in the reaction buffer (50 mM Tris-HCl, pH 7.0, 1 mM MnCl2 was added) at 55° C. to 85° C. (at intervals of 5° C.). The activity of the enzyme was measured by the cystein-carbazol-sulfuric acid method (Dische, Z., and E. Borenfreund., A New Spectrophotometric Method for the Detection and Determination of Keto Sugars and Trioses, J. Biol. Chem., 192:583-587, 1951).
To measure the enzyme kinetics of purified arabinose isomerase of the present invention, kinetic parameters were determined at 60° C., 65° C. and 70° C. (table 5).

[2] = substrate: OC[C@H]1OC(O)[C@H](O)[C@@H](O)[C@H]1O; assay: purified protein, by the assay type

With `OC[C@H]1OC(O)[C@H](O)[C@@H](O)[C@H]1O` (stereo partly drawn) [galactose] the kcat/Km ([1]; 60° C.) was 35 M⁻¹ s⁻¹ and 35 ± 0.67 M⁻¹ s⁻¹, the νmax ([1]; 60° C.) was 2.5 U/mg and 2.5 ± 0.07 U/mg and the kcat/Km ([1]; 65° C.) was 38.3 ± 0.5 M⁻¹ s⁻¹. For the same molecule, the νmax ([1]; 65° C.) was 6.5 U/mg and 6.5 ± 0.57 U/mg, the “Km increase (times) relative to 60° C.” value ([1]; 65° C. and 70° C. vs 60° C.) was 2.4 times and the kcat/Km ([1]; 70° C.) was 53.3 M⁻¹ s⁻¹ and 53.3 ± 0.67 M⁻¹ s⁻¹. For the same molecule, the νmax ([1]; 70° C.) was 9.1 U/mg and 9.1 ± 1.42 U/mg.

B1: Geobacillus thermodenitrificans arabinose isomerase (mGTAI), recombinant, expressed in and purified from Corynebacterium glutamicum mGTAIC001 (Geobacillus … (protein)
chain: T1 sequence (A4IPA1 with tags, fused parts or gaps C449S/N474K)
B1 was tested, and the Km ([2]; other: 60° C.) was 67.0 ± 2.98 mM and the kcat/Km ([2]; other: 65° C.) was 38.3 M⁻¹ s⁻¹.
